Measured values taken from patent publication US20240025884A1 (Dong-A ST Co., Ltd., priority 2022, published 2024).

The compounds below were run against GCN2 (Homo sapiens (Human), UniProt Q9P2K8) (assay: GCN2 Biochemical Assay (TR-FRET, GFP-eIF2S1 substrate phosphorylation)). Details: read-out: IC50 (GCN2 Inhibitory Activity).
Chain of GCN2 (Q9P2K8 whole entry): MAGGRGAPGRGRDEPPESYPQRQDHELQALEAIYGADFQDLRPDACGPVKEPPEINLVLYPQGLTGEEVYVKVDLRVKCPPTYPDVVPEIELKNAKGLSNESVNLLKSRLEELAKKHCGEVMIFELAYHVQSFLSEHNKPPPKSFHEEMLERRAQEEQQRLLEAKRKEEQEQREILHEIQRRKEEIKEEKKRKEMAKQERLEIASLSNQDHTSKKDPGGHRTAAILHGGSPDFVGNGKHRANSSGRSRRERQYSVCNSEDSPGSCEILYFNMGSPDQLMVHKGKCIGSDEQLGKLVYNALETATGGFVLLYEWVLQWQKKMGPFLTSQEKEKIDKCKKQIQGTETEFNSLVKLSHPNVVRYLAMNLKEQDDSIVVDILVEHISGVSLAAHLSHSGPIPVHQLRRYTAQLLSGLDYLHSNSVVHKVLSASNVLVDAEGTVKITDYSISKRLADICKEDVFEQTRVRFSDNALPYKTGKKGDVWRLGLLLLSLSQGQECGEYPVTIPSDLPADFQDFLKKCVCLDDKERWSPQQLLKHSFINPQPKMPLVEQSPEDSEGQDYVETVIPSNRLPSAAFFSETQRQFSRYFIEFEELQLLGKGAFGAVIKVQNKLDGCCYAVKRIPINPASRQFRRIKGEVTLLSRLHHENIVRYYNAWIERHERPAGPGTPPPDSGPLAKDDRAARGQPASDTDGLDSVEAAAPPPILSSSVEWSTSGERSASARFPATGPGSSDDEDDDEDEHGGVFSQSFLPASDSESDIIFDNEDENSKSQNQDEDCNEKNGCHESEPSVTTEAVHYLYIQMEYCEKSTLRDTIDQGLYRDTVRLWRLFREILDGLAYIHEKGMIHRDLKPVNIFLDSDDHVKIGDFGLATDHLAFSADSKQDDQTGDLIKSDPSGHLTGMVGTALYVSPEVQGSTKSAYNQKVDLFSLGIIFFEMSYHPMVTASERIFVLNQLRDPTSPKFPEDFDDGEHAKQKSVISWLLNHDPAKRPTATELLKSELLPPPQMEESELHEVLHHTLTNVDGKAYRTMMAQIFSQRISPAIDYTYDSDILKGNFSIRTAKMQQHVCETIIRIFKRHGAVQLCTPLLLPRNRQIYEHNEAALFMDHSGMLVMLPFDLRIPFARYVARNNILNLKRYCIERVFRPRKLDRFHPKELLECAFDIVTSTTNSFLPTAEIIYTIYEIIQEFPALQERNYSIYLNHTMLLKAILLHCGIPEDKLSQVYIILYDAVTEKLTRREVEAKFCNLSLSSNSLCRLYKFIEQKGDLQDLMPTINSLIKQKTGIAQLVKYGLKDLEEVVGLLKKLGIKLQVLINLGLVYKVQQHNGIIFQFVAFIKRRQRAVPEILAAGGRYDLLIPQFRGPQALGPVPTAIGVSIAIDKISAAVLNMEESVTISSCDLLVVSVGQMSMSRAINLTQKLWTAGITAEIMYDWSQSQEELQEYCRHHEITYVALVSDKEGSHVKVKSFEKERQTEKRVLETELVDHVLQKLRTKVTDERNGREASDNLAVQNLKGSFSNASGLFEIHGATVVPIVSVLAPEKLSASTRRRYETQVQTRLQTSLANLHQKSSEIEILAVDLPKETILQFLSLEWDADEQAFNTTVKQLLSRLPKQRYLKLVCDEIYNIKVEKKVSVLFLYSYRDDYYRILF
Outline: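 TR-FRET readout (Ex 340, Em 490/520 nm) after 2–3 h with Tb-labelled phospho-eIF2S1 antibody in stop mix, following a 70 min room-temperature kinase step. Reaction: in-house GCN2, GFP-eIF2S1, ATP, tRNA in Tris pH 7.5 (2× stocks 1.6 nM, 50 nM, 0.2 mM); compounds tested at 10 concentrations, with a phospho-substrate artifact counter-plate.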
An IC50 of less than 10 nM was found for `Cc1cnc(Nc2cc(C)n(C)n2)nc1-c1c[nH]c2c(N3Cc4c(ccnc4Br)C3=O)cccc12` [Example 290, 4-bromo-2-(3-(2-((1,5-dimethyl-1H-pyrazol-3-yl)amino)-5-methylpyrimidin-4-yl)-1H-indol-7-yl)-2,3-dihydro-1H-pyrrolo[3,4-c]pyridin-1-one] in this work.
An IC50 of less than 10 nM was found for `Cc1cnc(Nc2cc(C)n(C)n2)nc1-c1c[nH]c2c(N3Cc4ccc(NC(=O)C5CC5)cc4C3=O)cccc12` [Example 291, N-(2-(3-(2-((1,5-dimethyl-1H-pyrazol-3-yl)amino)-5-methylpyrimidin-4-yl)-1H-indol-7-yl)-3-oxoisoindolin-5-yl)cyclopropanecarboxamide] in this work.
An IC50 of 100 to 1000 nM was found for `Cc1cnc(Nc2cc(C)n(C)n2)nc1-c1c[nH]c2c(N3Cc4cccc(NC(=O)C5CCCCC5)c4C3=O)cccc12` [Example 292, N-(2-(3-(2-((1,5-dimethyl-1H-pyrazol-3-yl)amino)-5-methylpyrimidin-4-yl)-1H-indol-7-yl)-3-oxoisoindolin-4-yl)cyclohexanecarboxamide] in this work.
An IC50 of 100 to 1000 nM was found for `Cc1cnc(Nc2cc(C)n(C)n2)nc1-c1c[nH]c2c(N3Cc4cccc(NC(=O)c5ccccc5)c4C3=O)cccc12` [Example 293, N-(2-(3-(2-((1,5-dimethyl-1H-pyrazol-3-yl)amino)-5-methylpyrimidin-4-yl)-1H-indol-7-yl)-3-oxoisoindolin-4-yl)benzamide] in this work.
An IC50 of 10 to 100 nM was found for `Cc1cnc(Nc2cc(C)n(C)n2)nc1-c1c[nH]c2c(N3Cc4c(NC(=O)c5ccccc5)cccc4C3=O)cccc12` [Example 294, N-(2-(3-(2-((1,5-dimethyl-1H-pyrazol-3-yl)amino)-5-methylpyrimidin-4-yl)-1H-indol-7-yl)-1-oxoisoindolin-4-yl)benzamide] in this work.
An IC50 of 10 to 100 nM was found for `Cc1cnc(Nc2cc(C)n(C)n2)nc1-c1c[nH]c2c(N3Cc4c(NC(=O)C5CCCCC5)cccc4C3=O)cccc12` [Example 295, N-(2-(3-(2-((1,5-dimethyl-1H-pyrazol-3-yl)amino)-5-methylpyrimidin-4-yl)-1H-indol-7-yl)-1-oxoisoindolin-4-yl)cyclohexanecarboxamide] in this work.
An IC50 of less than 10 nM was found for `Cc1cnc(Nc2cc(C)n(C)n2)nc1-c1c[nH]c2c(N3Cc4c(NC(=O)N5CCOCC5)cccc4C3=O)cccc12` [Example 296, N-(2-(3-(2-((1,5-dimethyl-1H-pyrazol-3-yl)amino)-5-methylpyrimidin-4-yl)-1H-indol-7-yl)-1-oxoisoindolin-4-yl)morpholine-4-carboxamide] in this work.
An IC50 of less than 10 nM was found for `Cc1cnc(Nc2cc(C)n(C)n2)nc1-c1c[nH]c2c(N3Cc4c(NC(=O)c5ccccn5)cccc4C3=O)cccc12` [Example 297, N-(2-(3-(2-((1,5-dimethyl-1H-pyrazol-3-yl)amino)-5-methylpyrimidin-4-yl)-1H-indol-7-yl)-1-oxoisoindolin-4-yl)picolinamide] in this work.
An IC50 of less than 10 nM was found for `Cc1cnc(Nc2cc(C)n(C)n2)nc1-c1c[nH]c2c(N3Cc4c(NC(=O)c5cccnc5)cccc4C3=O)cccc12` [Example 298, N-(2-(3-(2-((1,5-dimethyl-1H-pyrazol-3-yl)amino)-5-methylpyrimidin-4-yl)-1H-indol-7-yl)-1-oxoisoindolin-4-yl)nicotinamide] in this work.
An IC50 of less than 10 nM was found for `Cc1cnc(Nc2cc(C)n(C)n2)nc1-c1c[nH]c2c(N3Cc4c(NC(=O)c5cocn5)cccc4C3=O)cccc12` [Example 299, N-(2-(3-(2-((1,5-dimethyl-1H-pyrazol-3-yl)amino)-5-methylpyrimidin-4-yl)-1H-indol-7-yl)-1-oxoisoindolin-4-yl)oxazole-4-carboxamide] in this work.
An IC50 of less than 10 nM was found for `Cc1cnc(Nc2cc(C)n(C)n2)nc1-c1c[nH]c2c(N3Cc4c(NC(=O)C5CC5)cccc4C3=O)cccc12` [Example 300, N-(2-(3-(2-((1,5-dimethyl-1H-pyrazol-3-yl)amino)-5-methylpyrimidin-4-yl)-1H-indol-7-yl)-1-oxoisoindolin-4-yl)cyclopropanecarboxamide] in this work.
An IC50 of less than 10 nM was found for `Cc1cnc(Nc2cc(C)n(C)n2)nc1-c1c[nH]c2c(N3Cc4c(NC(=O)c5ccncc5)cccc4C3=O)cccc12` [Example 301, N-(2-(3-(2-((1,5-dimethyl-1H-pyrazol-3-yl)amino)-5-methylpyrimidin-4-yl)-1H-indol-7-yl)-1-oxoisoindolin-4-yl)isonicotinamide] in this work.
An IC50 of less than 10 nM was found for `Cc1cnc(Nc2cc(C)n(C)n2)nc1-c1c[nH]c2c(N3Cc4c(NC(=O)c5ccnnc5)cccc4C3=O)cccc12` [Example 302, N-(2-(3-(2-((1,5-dimethyl-1H-pyrazol-3-yl)amino)-5-methylpyrimidin-4-yl)-1H-indol-7-yl)-1-oxoisoindolin-4-yl)pyridazine-4-carboxamide] in this work.
An IC50 of less than 10 nM was found for `Cc1cnc(Nc2cc(C)n(C)n2)nc1-c1c[nH]c2c(N3Cc4c(NC(=O)C5CCC(C)CC5)cccc4C3=O)cccc12` (stereo not drawn) [Example 303, N-(2-(3-(2-((1,5-dimethyl-1H-pyrazol-3-yl)amino)-5-methylpyrimidin-4-yl)-1H-indol-7-yl)-1-oxoisoindolin-4-yl)-4-methylcyclohexane-1-carboxamide] in this work.
An IC50 of less than 10 nM was found for `Cc1cnc(Nc2cc(C)n(C)n2)nc1-c1c[nH]c2c(N3Cc4c(NC(=O)Cc5cccc(O)c5)cccc4C3=O)cccc12` [Example 304, N-(2-(3-(2-((1,5-dimethyl-1H-pyrazol-3-yl)amino)-5-methylpyrimidin-4-yl)-1H-indol-7-yl)-1-oxoisoindolin-4-yl)-2-(3-hydroxyphenyl)acetamide] in this work.
An IC50 of less than 10 nM was found for `Cc1cnc(Nc2cc(C)n(C)n2)nc1-c1c[nH]c2c(N3Cc4c(NC(=O)Cc5ccccc5)cccc4C3=O)cccc12` [Example 305, N-(2-(3-(2-((1,5-dimethyl-1H-pyrazol-3-yl)amino)-5-methylpyrimidin-4-yl)-1H-indol-7-yl)-1-oxoisoindolin-4-yl)-2-phenylacetamide] in this work.
An IC50 of less than 10 nM was found for `Cc1cnc(Nc2cc(C)n(C)n2)nc1-c1c[nH]c2c(N3Cc4c(NC(=O)C5CCN(C)CC5)cccc4C3=O)cccc12` [Example 306, N-(2-(3-(2-((1,5-dimethyl-1H-pyrazol-3-yl)amino)-5-methylpyrimidin-4-yl)-1H-indol-7-yl)-1-oxoisoindolin-4-yl)-1-methylpiperidine-4-carboxamide] in this work.
An IC50 of less than 10 nM was found for `Cc1cnc(Nc2cc(C)n(C)n2)nc1-c1c[nH]c2c(N3Cc4c(NC(=O)C5CCCN(C)C5)cccc4C3=O)cccc12` (stereo not drawn) [Example 307, N-(2-(3-(2-((1,5-dimethyl-1H-pyrazol-3-yl)amino)-5-methylpyrimidin-4-yl)-1H-indol-7-yl)-1-oxoisoindolin-4-yl)-1-methylpiperidine-3-carboxamide] in this work.
An IC50 of less than 10 nM was found for `Cc1cnc(Nc2cc(C)n(C)n2)nc1-c1c[nH]c2c(N3Cc4c(NC(=O)C5CCC(=O)N5)cccc4C3=O)cccc12` (stereo not drawn) [Example 308, N-(2-(3-(2-((1,5-dimethyl-1H-pyrazol-3-yl)amino)-5-methylpyrimidin-4-yl)-1H-indol-7-yl)-1-oxoisoindolin-4-yl)-5-oxopyrrolidine-2-carboxamide] in this work.
An IC50 of 10 to 100 nM was found for `Cc1cnc(Nc2cc(C)n(C)n2)nc1-c1c[nH]c2c(N3Cc4c(NC(=O)C5CC=CCC5)cccc4C3=O)cccc12` (stereo not drawn) [Example 309, N-(2-(3-(2-((1,5-dimethyl-1H-pyrazol-3-yl)amino)-5-methylpyrimidin-4-yl)-1H-indol-7-yl)-1-oxoisoindolin-4-yl)cyclohex-3-ene-1-carboxamide] in this work.
An IC50 of less than 10 nM was found for `Cc1cnc(Nc2cc(C)n(C)n2)nc1-c1c[nH]c2c(N3Cc4c(NC(=O)C5CC=CC5)cccc4C3=O)cccc12` [Example 310, N-(2-(3-(2-((1,5-dimethyl-1H-pyrazol-3-yl)amino)-5-methylpyrimidin-4-yl)-1H-indol-7-yl)-1-oxoisoindolin-4-yl)cyclopent-3-ene-1-carboxamide] in this work.
An IC50 of 10 to 100 nM was found for `Cc1cnc(Nc2cc(C)n(C)n2)nc1-c1c[nH]c2c(N3Cc4c(NC(=O)C5(C)CC=CC5)cccc4C3=O)cccc12` [Example 311, N-(2-(3-(2-((1,5-dimethyl-1H-pyrazol-3-yl)amino)-5-methylpyrimidin-4-yl)-1H-indol-7-yl)-1-oxoisoindolin-4-yl)-1-methylcyclopent-3-ene-1-carboxamide] in this work.
An IC50 of 10 to 100 nM was found for `Cc1cnc(Nc2cc(C)n(C)n2)nc1-c1c[nH]c2c(N3Cc4c(NC(=O)C5CCCCCC5)cccc4C3=O)cccc12` [Example 312, N-(2-(3-(2-((1,5-dimethyl-1H-pyrazol-3-yl)amino)-5-methylpyrimidin-4-yl)-1H-indol-7-yl)-1-oxoisoindolin-4-yl)cycloheptanecarboxamide] in this work.
An IC50 of less than 10 nM was found for `Cc1cnc(Nc2cc(C)n(C)n2)nc1-c1c[nH]c2c(N3Cc4c(NC(=O)N5CCNC5=O)cccc4C3=O)cccc12` [Example 313, N-(2-(3-(2-((1,5-dimethyl-1H-pyrazol-3-yl)amino)-5-methylpyrimidin-4-yl)-1H-indol-7-yl)-1-oxoisoindolin-4-yl)-2-oxoimidazolidine-1-carboxamide] in this work.
An IC50 of 10 to 100 nM was found for `Cc1cnc(Nc2cc(C)n(C)n2)nc1-c1c[nH]c2c(N3Cc4c(NC(=O)C5Cc6ccccc6C5)cccc4C3=O)cccc12` [Example 314, N-(2-(3-(2-((1,5-dimethyl-1H-pyrazol-3-yl)amino)-5-methylpyrimidin-4-yl)-1H-indol-7-yl)-1-oxoisoindolin-4-yl)-2,3-dihydro-1H-indene-2-carboxamide] in this work.
An IC50 of less than 10 nM was found for `Cc1cnc(Nc2cc(C)n(C)n2)nc1-c1c[nH]c2c(N3Cc4c(NC(=O)[C@@H]5CCNC5)cccc4C3=O)cccc12` [Example 315, (R)-N-(2-(3-(2-((1,5-dimethyl-1H-pyrazol-3-yl)amino)-5-methylpyrimidin-4-yl)-1H-indol-7-yl)-1-oxoisoindolin-4-yl)pyrrolidine-3-carboxamide] in this work.
An IC50 of 10 to 100 nM was found for `Cc1cnc(Nc2cc(C)n(C)n2)nc1-c1c[nH]c2c(N3Cc4c(NC(=O)[C@H]5CCNC5)cccc4C3=O)cccc12` [Example 316, (S)-N-(2-(3-(2-((1,5-dimethyl-1H-pyrazol-3-yl)amino)-5-methylpyrimidin-4-yl)-1H-indol-7-yl)-1-oxoisoindolin-4-yl)pyrrolidine-3-carboxamide] in this work.
